In general, IC50 refers to the midpoint of a concentration-inhibition curve. A low value points to greater potency.

The text below walks through data of publication PMC8230315, “A Pan-Inhibitor for Protein Arginine Methyltransferase Family Enzymes” (Biomolecules, 2021).

One assay concerns NTMT1. In words: Selectivity SAHH-coupled fluorescence assay, NTMT1. The format is biochemical. The text has this: (§1) We chose the top four potent compounds (6b and 6l–n) to investigate their selectivities against several in-house methyltransferases including protein arginine methyltransferase TbPRMT7, two members of the protein lysine methyltransferase PKMT (G9a and SETD7), protein N-terminal methyltransferase 1 (NTMT1), and a small molecule methyltransferase nicotinamide N-methyltransferase (NNMT), all of which have a SAM binding site.
(§2) A fluorescence-based SAHH-coupled assay was applied to study the effect of the compound on methyltransferase activity of PRMT7, NTMT1, SETD7, G9a, NNMT, and SAHH. For PRMT7, the assay was performed in a final well volume of 100 μL: 25 mM Tris (pH = 7.5), 50 mM KCl, 0.01% Triton X-100, 5 μM SAHH, 0.2 μM PRMT7, 3 μM AdoMet, and 15 μM ThioGlo1. After incubation for 10 min with the inhibitor, reactions were initiated by the addition of 60 μM H4-21 peptide, and the reaction was monitored for 15 min. […] After incubation for 10 min with the inhibitor, reactions were initiated by the addition of 0.5 μM GPKRIA peptide, and the reaction was monitored for 15 min. […] After incubation for 10 min with the inhibitor, reactions were initiated by the addition of 90 μM H3-21 peptide, and the reaction was monitored for 15 min. […] After incubation for 10 min with the inhibitor, reactions were initiated by the addition of 10 μM nicotinamide, and the reaction was monitored for 18 min. […]

The next assay concerns NNMT. As to the kind of experiment: Selectivity SAHH-coupled fluorescence assay, NNMT. The format is biochemical.
Text: as §1, §2

The target in a further assay is T1, PRMT5 (C449S)/MEP50 (Homo sapiens, UniProt O14744, C449S).
T1 construct: purchased Reaction Biology
As to the kind of experiment: HotSpot radioisotope 3H-AdoMet methyltransferase assay, PRMT5 (C449S)/MEP50. The format is biochemical. The procedure: (§3) Future studies will focus on obtaining structural information of II757 bound to PRMTs to inform how to connect to a substrate portion to increase both potency and selectivity for each PRMT.
(§4) Figure 6 Selectivity of II757 against the panel of PRMTs. II757 was tested in 10 doses with threefold serial dilution in the HotSpot methyltransferase assay at reaction biology. TEXT PRINTED IN THE PICTURE: II757: IC50 (nM) PRMT1: 16.4; IC50 (nM) PRMT3: 321; IC50 (nM) PRMT4: 5.05; IC50 (nM) PRMT5/MEP50 Complex: 18.2; IC50 (nM) PRMT5 (C449S)/MEP50: 36.6; IC50 (nM) PRMT6: 30.5; IC50 (nM) PRMT7: 555; IC50 (nM) PRMT8: 32.1

The target in the next assay is T2, PRMT6 (Homo sapiens, UniProt Q96LA8).
T2 construct: purchased Reaction Biology
In words: HotSpot radioisotope 3H-AdoMet methyltransferase assay, PRMT6. The format is biochemical. The procedure:
as §3, §4

The target in another assay is T3, PRMT8 (Homo sapiens, UniProt Q9NR22).
T3 construct: purchased Reaction Biology
In words: HotSpot radioisotope 3H-AdoMet methyltransferase assay, PRMT8. The format is biochemical. The procedure: as §3, §4

Assay [1] relates to histone H4 Arg3 asymmetric dimethylation (H4R3me2a). In words: Cellular arginine methylation assay, Western blot in HEK293 cells. The format is cell-based. Particulars: 48 h, at 10 µM. Here is the method: Furthermore, we proceeded to investigate the inhibitory effects of II757 on the methylation level of histone H4 Arg3 via Western blotting to check its cellular inhibition. […] Future studies will focus on tethering this moiety with reported substrate-competitive inhibitors to enhance the selectivity and cellular potency.
HEK293 cell line was cultured in DMEM media supplemented with 10% FBS and 1% antibiotic-antimycotic (Gibco, Fisher, Waltham, MA, USA). The cells were maintained in a tissue culture dish (Falcon 353003, Fisher, Waltham, MA, USA) until seeding at a density of 0.03 × 10^6 cells/mL into a 24-well tissue culture plate (Falcon 353047, Fisher, Waltham, MA, USA). The cells were incubated overnight at 37 °C in 5% CO2 with the lid on. They were then treated with the inhibitors at different concentrations for 48 h. […]
The protein was quantified using BCA (Pierce BCA Protein Assay Kit, 23225, Fisher, Waltham, MA, USA) and equal amounts of protein were resolved by SDS-PAGE electrophoresis and blotted on Transfer membrane (Immun-Blot PVDF Membranes, Bio-Rad, Hercules, CA, USA Bio-Rad, 1620177). […] The membranes were washed three times with 1X TBST for 5 min each, and the proteins were detected by ECL (Bio-Rad, Hercules, CA, USA).
On the technique in general: Immunoblotting shows a protein as a band on a membrane.

T1 sequence (O14744 whole entry C449S): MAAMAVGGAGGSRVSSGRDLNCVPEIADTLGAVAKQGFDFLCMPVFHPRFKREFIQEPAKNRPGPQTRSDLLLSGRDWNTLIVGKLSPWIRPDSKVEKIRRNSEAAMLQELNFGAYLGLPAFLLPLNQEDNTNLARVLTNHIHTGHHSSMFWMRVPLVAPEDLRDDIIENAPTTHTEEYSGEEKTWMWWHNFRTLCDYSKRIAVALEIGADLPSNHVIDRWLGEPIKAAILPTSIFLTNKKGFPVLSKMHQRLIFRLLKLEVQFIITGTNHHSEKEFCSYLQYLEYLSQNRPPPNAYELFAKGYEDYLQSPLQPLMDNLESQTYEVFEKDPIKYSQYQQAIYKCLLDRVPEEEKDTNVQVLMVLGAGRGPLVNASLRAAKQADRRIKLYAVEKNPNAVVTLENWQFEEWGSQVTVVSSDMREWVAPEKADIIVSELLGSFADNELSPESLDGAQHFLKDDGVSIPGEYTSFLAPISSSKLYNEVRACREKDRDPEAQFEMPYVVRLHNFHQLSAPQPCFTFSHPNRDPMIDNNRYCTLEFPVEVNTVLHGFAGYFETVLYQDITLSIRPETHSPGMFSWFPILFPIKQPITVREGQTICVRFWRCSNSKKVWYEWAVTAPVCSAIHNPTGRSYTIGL
T1 sequence (Q9BQA1 whole entry partner): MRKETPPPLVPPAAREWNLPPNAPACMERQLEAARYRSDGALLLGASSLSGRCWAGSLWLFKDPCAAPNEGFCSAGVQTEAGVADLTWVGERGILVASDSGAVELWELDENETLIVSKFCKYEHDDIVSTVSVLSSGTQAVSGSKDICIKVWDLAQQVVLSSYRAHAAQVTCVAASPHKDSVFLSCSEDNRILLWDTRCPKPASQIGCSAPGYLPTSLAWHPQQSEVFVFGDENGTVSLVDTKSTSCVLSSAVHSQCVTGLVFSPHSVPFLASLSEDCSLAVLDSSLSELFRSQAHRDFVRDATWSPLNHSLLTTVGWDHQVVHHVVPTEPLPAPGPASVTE
T3 sequence (Q9NR22 whole entry): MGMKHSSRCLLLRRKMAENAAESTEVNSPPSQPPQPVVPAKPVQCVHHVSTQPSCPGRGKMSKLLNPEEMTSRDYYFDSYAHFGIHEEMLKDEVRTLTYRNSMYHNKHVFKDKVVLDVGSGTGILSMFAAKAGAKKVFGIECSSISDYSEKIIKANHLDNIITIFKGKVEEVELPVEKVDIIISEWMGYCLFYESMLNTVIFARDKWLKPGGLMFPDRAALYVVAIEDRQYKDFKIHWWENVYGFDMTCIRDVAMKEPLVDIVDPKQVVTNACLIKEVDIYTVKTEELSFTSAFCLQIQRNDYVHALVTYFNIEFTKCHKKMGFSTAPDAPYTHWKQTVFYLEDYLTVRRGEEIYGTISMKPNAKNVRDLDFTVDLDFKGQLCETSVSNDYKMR
T2 sequence (Q96LA8 whole entry): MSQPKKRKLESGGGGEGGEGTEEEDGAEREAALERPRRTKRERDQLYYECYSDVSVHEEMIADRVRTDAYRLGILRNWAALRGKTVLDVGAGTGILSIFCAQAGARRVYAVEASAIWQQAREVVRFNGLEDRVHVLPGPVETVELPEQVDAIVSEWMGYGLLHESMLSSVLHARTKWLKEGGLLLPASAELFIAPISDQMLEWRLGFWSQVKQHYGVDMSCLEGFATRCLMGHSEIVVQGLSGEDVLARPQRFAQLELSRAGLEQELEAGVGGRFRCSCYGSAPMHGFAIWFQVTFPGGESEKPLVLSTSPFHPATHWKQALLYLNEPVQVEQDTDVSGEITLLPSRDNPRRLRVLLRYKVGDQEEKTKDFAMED

In the case of `N=C(NCCCSC[C@H]1O[C@@H](n2cnc3c(N)ncnc32)[C@H](O)[C@@H]1O)Nc1cccc(Br)c1` [Compound 6l, 1-(3-((((2S,3S,4R,5R)-5-(6-amino-9H-purin-9-yl)-3,4-dihydroxytetrahydrofuran-2-yl)methyl)thio)propyl)-3-(3-bromophenyl)guanidine], the “selectivity over NTMT1” value in the assay with NTMT1 is listed as “over 1000 fold”. In addition, the “selectivity over NNMT” value with NNMT was “over 1000 fold”. Moreover, the results for the IC50 against PRMT5 (C449S)/MEP50, against PRMT6 and against PRMT8 were 36.6 nM, 30.5 nM and 32.1 nM, respectively. Moreover, the H4R3me2a level entry in assay [1] is reported as “decrease”.
